Data reported in the supplement of paper PMC10883282.

Key:
Experiment in all cases: relative viability vs DMSO control (72 h) (fraction); higher = more viable cells
[1] = tested on: RD-ES
How it was run: (§1)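 ATPLite readings, expressed as percent growth and averaged over up to triplicate wells, provided relative viability. Before reading, sarcoma cell lines seeded in 384-well plates to reach 80–90% confluence received 2.5 µl of serially diluted compound after 24 h, from source plates of 10 mM to 0.0002 mM. Plates were held 72 h at 37 °C, 5% CO2, with 0.1% DMSO as vehicle and a 5 µM positive control. The data were rescaled to 1 for full and 0 for none.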

[2] = tested on: SYO-1
How it was run: as §1

[3] = tested on: SK-ES-1
How it was run: as §1

[4] = tested on: G401
How it was run: as §1

[5] = tested on: VA-ES-BJ
How it was run: as §1

[6] = tested on: KHOS-240S
How it was run: as §1

[7] = tested on: HT1080
How it was run: as §1

[8] = tested on: RD
How it was run: as §1

[9] = tested on: SW982
How it was run: as §1

[10] = tested on: SW1353
How it was run: as §1

[11] = tested on: SK-LMS-1
How it was run: as §1

[12] = tested on: MES-SA
How it was run: as §1

Cc1c2oc3c(C)ccc(C(=O)N[C@@H]4C(=O)N[C@H](C(C)C)C(=O)N5CCC[C@H]5C(=O)N(C)CC(=O)N(C)[C@@H](C(C)C)C(=O)O[C@@H]4C)c3nc-2c(C(=O)N[C@@H]2C(=O)N[C@H](C(C)C)C(=O)N3CCC[C@H]3C(=O)N(C)CC(=O)N(C)[C@@H](C(C)C)C(=O)O[C@@H]2C)c(N)c1=O [Dactinomycin]
Settings | relative viability
[1], 0.00017 µM | 1
[1], 0.00051 µM | 0.973
[1], 0.00152 µM | 0.943
[1], 0.00457 µM | 0.88
[1], 0.01372 µM | 0.621
[1], 0.04115 µM | 0.0824
[1], 0.1235 µM | 0.00823
[1], 0.3704 µM | -0.00353
[1], 1.111 µM | -0.00503
[1], 3.333 µM | -0.00297
[1], 10 µM | 0.00427
[2], 0.00017 µM | 0.883
[2], 0.00051 µM | 0.888
[2], 0.00152 µM | 0.606
[2], 0.00457 µM | 0.327
[2], 0.01372 µM | 0.259
[2], 0.04115 µM | 0.249
[2], 0.1235 µM | 0.239
[2], 0.3704 µM | 0.29
[2], 1.111 µM | 0.292
[2], 3.333 µM | 0.298
[2], 10 µM | 0.28
[3], 0.00017 µM | 1.03
[3], 0.00051 µM | 0.976
[3], 0.00152 µM | 0.694
[3], 0.00457 µM | 0.423
[3], 0.01372 µM | 0.251
[3], 0.04115 µM | 0.00443
[3], 0.1235 µM | -0.00147
[3], 0.3704 µM | -0.0034
[3], 1.111 µM | -0.0043
[3], 3.333 µM | -0.00447
[3], 10 µM | 0.0007
[4], 0.00017 µM | 0.948
[4], 0.00051 µM | 0.877
[4], 0.00152 µM | 0.652
[4], 0.00457 µM | 0.441
[4], 0.01372 µM | 0.279
[4], 0.04115 µM | 0.211
[4], 0.1235 µM | 0.155
[4], 0.3704 µM | 0.118
[4], 1.111 µM | 0.087
[4], 3.333 µM | 0.0667
[4], 10 µM | 0.0642
[5], 0.00017 µM | 1.01
[5], 0.00051 µM | 0.994
[5], 0.00152 µM | 0.94
[5], 0.00457 µM | 0.733
[5], 0.01372 µM | 0.457
[5], 0.04115 µM | 0.303
[5], 0.1235 µM | 0.151
[5], 0.3704 µM | 0.158
[5], 1.111 µM | 0.148
[5], 3.333 µM | 0.15
[5], 10 µM | 0.146
[6], 0.00017 µM | 1.04
[6], 0.00051 µM | 1.06
[6], 0.00152 µM | 0.864
[6], 0.00457 µM | 0.73
[6], 0.01372 µM | 0.499
[6], 0.04115 µM | 0.202
[6], 0.1235 µM | 0.0803
[6], 0.3704 µM | 0.0989
[6], 1.111 µM | 0.0816
[6], 3.333 µM | 0.0805
[6], 10 µM | 0.0884
[7], 0.00017 µM | 1.02
[7], 0.00051 µM | 1.04
[7], 0.00152 µM | 0.9913
[7], 0.00457 µM | 0.712
[7], 0.01372 µM | 0.553
[7], 0.04115 µM | 0.391
[7], 0.1235 µM | 0.185
[7], 0.3704 µM | 0.171
[7], 1.111 µM | 0.137
[7], 3.333 µM | 0.128
[7], 10 µM | 0.129
[8], 0.00017 µM | 1.09
[8], 0.00051 µM | 1.12
[8], 0.00152 µM | 1.071
[8], 0.00457 µM | 0.811
[8], 0.01372 µM | 0.64
[8], 0.04115 µM | 0.21
[8], 0.1235 µM | 0.0929
[8], 0.3704 µM | 0.108
[8], 1.111 µM | 0.0875
[8], 3.333 µM | 0.0715
[8], 10 µM | 0.0653
[9], 0.00017 µM | 1.06
[9], 0.00051 µM | 1.02
[9], 0.00152 µM | 0.858
[9], 0.00457 µM | 0.563
[9], 0.01372 µM | 0.382
[9], 0.04115 µM | 0.234
[9], 0.1235 µM | 0.15
[9], 0.3704 µM | 0.167
[9], 1.111 µM | 0.147
[9], 3.333 µM | 0.142
[9], 10 µM | 0.147
[10], 0.00017 µM | 0.971
[10], 0.00051 µM | 0.946
[10], 0.00152 µM | 0.834
[10], 0.00457 µM | 0.71
[10], 0.01372 µM | 0.62
[10], 0.04115 µM | 0.272
[10], 0.1235 µM | 0.242
[10], 0.3704 µM | 0.215
[10], 1.111 µM | 0.183
[10], 3.333 µM | 0.15
[10], 10 µM | 0.1334
[11], 0.00017 µM | 1
[11], 0.00051 µM | 1.02
[11], 0.00152 µM | 0.994
[11], 0.00457 µM | 0.86
[11], 0.01372 µM | 0.664
[11], 0.04115 µM | 0.364
[11], 0.1235 µM | 0.292
[11], 0.3704 µM | 0.27
[11], 1.111 µM | 0.287
[11], 3.333 µM | 0.288
[11], 10 µM | 0.3
[12], 0.00017 µM | 0.9129
[12], 0.00051 µM | 0.835
[12], 0.00152 µM | 0.354
[12], 0.00457 µM | 0.321
[12], 0.01372 µM | 0.265
[12], 0.04115 µM | 0.0423
[12], 0.1235 µM | 0.0397
[12], 0.3704 µM | 0.0566
[12], 1.111 µM | 0.0464
[12], 3.333 µM | 0.0357
[12], 10 µM | 0.0424
